A word on the IC50: it is the concentration that gives 50% inhibition.

One test deals with HDAC5 (Homo sapiens, UniProt Q9UQL6). The experiment in a line: HDAC fluorometric activity assay, HDAC5. Conditions: IC50 Class IIa HDAC5, fluorogenic HDAC class IIa substrate 10 μM.
Another test has as its target HDAC9 (Homo sapiens, UniProt Q9UKV0). The experiment in a line: HDAC fluorometric activity assay, HDAC9.
A further test concerns the target T1, HDAC6 (Homo sapiens, UniProt Q9UBN7).
T1 sequence (Q9UBN7 1-1215): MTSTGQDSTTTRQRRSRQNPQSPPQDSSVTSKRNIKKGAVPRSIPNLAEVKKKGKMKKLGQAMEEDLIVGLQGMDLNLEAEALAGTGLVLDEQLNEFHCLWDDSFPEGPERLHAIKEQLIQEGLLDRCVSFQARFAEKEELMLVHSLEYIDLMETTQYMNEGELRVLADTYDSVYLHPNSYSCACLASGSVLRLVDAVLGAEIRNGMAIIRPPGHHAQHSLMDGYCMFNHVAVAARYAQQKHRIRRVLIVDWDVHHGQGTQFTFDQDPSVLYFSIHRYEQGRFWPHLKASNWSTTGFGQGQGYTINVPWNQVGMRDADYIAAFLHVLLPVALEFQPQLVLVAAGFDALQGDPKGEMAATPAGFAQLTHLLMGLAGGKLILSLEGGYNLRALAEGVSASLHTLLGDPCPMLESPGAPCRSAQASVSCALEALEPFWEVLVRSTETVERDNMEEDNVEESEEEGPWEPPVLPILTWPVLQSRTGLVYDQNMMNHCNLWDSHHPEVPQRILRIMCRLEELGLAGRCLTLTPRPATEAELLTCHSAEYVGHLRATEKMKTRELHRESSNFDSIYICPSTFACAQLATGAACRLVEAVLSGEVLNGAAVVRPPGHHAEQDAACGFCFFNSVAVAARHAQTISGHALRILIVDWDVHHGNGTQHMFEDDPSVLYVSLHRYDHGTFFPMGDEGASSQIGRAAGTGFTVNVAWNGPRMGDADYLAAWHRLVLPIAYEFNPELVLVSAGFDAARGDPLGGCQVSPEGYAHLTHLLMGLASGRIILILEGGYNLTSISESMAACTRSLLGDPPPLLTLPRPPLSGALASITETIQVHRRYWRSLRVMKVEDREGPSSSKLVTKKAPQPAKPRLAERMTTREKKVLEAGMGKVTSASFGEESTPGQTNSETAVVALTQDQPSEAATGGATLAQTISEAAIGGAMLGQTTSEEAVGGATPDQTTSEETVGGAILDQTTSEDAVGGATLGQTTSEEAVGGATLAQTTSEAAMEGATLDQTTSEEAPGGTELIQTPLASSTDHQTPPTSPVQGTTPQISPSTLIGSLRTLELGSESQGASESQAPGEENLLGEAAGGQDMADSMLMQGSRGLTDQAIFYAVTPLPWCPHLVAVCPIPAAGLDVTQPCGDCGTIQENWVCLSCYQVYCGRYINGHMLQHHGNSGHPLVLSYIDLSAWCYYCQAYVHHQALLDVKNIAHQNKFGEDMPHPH
The experiment in a line: HDAC fluorometric activity assay, HDAC6.

The next test concerns the target T2, HDAC7 (Homo sapiens, UniProt Q8WUI4).
T2 sequence (Q8WUI4 1-952): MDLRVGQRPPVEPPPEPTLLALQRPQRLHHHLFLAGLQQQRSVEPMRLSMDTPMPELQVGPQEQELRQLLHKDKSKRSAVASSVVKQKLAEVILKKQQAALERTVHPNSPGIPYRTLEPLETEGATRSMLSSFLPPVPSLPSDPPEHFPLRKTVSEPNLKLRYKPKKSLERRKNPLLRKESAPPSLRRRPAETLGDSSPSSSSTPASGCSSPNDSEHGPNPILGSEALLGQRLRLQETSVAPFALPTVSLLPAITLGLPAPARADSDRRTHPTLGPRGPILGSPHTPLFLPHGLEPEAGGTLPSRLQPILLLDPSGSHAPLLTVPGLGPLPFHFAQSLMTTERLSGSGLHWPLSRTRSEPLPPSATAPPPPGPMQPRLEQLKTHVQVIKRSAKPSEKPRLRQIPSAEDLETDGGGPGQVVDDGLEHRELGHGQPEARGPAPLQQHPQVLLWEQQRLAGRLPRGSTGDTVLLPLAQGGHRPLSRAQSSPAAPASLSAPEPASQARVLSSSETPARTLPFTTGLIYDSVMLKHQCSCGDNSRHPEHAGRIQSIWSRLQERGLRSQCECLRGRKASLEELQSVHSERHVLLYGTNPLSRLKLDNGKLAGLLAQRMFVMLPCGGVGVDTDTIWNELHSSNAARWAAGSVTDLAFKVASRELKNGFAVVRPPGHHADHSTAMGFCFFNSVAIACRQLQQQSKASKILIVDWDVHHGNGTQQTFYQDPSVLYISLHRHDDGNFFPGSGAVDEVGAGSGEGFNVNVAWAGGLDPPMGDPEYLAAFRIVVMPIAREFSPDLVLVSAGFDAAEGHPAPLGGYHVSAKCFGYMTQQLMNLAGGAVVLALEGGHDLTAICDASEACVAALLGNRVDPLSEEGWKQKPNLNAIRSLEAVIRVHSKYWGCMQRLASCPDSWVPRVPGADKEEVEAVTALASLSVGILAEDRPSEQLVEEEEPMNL
The experiment in a line: HDAC fluorometric activity assay, HDAC7. Conditions: IC50 Class IIa HDAC7, fluorogenic HDAC class IIa substrate 10 μM.

The target in the next test is T3, HDAC4 (Homo sapiens, UniProt P56524).
T3 construct: Genes encoding HDAC4 (residues 648–1057) flanked with NdeI and EcoRI sites; made in house; host or cells: E. coli BL21(DE3)
T3 sequence (P56524 648-1057): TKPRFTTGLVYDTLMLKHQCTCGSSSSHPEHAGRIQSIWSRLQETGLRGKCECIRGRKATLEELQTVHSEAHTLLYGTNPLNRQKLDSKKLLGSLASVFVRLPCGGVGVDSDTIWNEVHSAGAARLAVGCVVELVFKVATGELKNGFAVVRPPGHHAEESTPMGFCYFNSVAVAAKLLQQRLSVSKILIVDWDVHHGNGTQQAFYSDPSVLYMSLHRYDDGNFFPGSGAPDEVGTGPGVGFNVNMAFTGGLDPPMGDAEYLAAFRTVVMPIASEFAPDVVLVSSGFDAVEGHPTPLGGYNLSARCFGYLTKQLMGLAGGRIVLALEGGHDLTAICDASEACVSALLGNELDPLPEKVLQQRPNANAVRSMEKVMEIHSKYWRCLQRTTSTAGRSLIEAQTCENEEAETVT
Put plainly: HDAC fluorometric activity assay, HDAC4. In kind it is biochemical. The conditions noted are these: Boc-Lys(TFA)-AMC 10 μM; read-out: IC50 Class IIa HDAC4. As to the method:
Proteins were expressed in BL21(DE3) cells by overnight induction with IPTG (1 mM) at 20–25°C and purified from cleared cell lysates by sequential chromatography on Ni-Sepharose 6 fast flow, Mono Q 5/50 GL, and Superdex 75 10/300 GL columns (GE Healthcare). Protein concentrations were quantified with Bradford Reagent (Bio-Rad).
Enzyme, inhibitors and substrate were diluted with HDAC buffer (15 mM Tris-HCl pH 8.1, 0.25 mM EDTA, 250 mM NaCl, 10% v:v glycerol). Briefly, 10 μL diluted HDAC, i.e., HeLa nuclear extract (Enzo), HDAC6 (BPS), HDAC4, HDAC5 (BPS), HDAC7 (BPS) and HDAC9 (BPS), as well as 50 μL of testing compounds at different concentrations were added to each well of a 96-well microtiter plate and pre-incubated at 30°C for 5 min. […] The fluorescence in wells without test compounds (0.1% DMSO, negative control) was set as 100% enzymatic activity and the fluorescence in wells with enzyme eliminated was set as 0% enzymatic activity. The fluorescence ratio of test compounds to negative control was defined as percentage of remaining enzyme activity. The IC50 values were calculated by linear regression of the data. All experiments were performed in triplicate.

Sequence of HDAC9 (Q9UKV0 whole entry): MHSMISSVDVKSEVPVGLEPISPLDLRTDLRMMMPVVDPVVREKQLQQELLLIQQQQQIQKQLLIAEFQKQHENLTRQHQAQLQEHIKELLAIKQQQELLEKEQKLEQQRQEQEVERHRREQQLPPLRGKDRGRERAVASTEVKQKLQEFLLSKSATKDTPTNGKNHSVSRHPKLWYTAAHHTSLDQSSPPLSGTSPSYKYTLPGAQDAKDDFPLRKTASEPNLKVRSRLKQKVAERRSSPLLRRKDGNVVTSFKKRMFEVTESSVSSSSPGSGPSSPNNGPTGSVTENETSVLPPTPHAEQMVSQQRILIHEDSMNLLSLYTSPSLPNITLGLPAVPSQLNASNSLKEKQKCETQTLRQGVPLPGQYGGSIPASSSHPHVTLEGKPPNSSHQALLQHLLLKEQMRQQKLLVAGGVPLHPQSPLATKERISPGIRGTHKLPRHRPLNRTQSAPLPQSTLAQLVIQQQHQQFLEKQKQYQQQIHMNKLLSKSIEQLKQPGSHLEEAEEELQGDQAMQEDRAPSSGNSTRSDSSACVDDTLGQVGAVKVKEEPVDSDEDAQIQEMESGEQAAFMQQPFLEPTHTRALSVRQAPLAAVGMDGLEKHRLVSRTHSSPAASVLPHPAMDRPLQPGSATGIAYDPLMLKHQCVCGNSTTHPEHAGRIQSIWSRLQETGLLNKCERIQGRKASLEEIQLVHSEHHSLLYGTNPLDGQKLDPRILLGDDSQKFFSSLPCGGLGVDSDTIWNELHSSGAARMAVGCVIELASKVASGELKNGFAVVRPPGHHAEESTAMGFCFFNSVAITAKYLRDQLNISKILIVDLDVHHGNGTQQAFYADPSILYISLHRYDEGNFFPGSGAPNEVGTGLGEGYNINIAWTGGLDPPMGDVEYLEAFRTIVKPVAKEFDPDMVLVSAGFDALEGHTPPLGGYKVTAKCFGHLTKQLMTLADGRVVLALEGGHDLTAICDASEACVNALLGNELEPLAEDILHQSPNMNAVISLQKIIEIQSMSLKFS
Sequence of HDAC5 (Q9UQL6 whole entry): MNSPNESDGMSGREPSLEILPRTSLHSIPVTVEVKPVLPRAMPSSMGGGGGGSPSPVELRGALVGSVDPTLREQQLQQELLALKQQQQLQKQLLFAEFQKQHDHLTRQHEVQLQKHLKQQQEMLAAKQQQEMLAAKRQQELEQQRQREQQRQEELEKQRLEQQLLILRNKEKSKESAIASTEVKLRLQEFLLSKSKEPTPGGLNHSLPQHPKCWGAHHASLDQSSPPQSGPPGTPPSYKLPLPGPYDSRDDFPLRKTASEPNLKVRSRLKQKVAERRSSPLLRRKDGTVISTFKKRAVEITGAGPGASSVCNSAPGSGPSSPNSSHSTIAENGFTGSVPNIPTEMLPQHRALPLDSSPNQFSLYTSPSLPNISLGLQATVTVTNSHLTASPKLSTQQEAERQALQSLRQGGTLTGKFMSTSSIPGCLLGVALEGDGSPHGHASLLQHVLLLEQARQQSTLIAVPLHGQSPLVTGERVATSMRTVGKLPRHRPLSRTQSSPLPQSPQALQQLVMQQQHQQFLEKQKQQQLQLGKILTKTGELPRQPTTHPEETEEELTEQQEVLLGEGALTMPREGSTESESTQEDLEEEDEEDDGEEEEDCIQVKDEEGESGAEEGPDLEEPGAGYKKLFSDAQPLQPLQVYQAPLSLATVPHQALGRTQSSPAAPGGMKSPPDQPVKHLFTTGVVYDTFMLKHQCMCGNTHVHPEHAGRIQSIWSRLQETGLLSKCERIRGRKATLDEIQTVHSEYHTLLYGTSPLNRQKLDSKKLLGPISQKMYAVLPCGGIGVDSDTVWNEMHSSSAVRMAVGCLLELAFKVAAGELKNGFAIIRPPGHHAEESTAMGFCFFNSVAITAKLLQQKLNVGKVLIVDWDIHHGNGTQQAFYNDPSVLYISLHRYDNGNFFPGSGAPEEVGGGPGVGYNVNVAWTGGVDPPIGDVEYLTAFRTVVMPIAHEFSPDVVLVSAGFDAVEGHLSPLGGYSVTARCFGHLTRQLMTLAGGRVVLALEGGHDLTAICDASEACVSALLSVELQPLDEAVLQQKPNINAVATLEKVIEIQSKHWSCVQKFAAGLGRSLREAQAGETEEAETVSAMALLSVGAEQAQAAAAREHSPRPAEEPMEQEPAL

Turning to `O=C(/C=C/c1ccc(O)cc1)CCCCc1ccccc1` [Compound 4b], the half-maximal inhibitory concentration (IC50) against HDAC5, against HDAC9, against HDAC6, against HDAC7 and at HDAC4 was over 40 µM each time.
Turning to `O=C(CCCCc1ccccc1)CCc1cccc(O)c1` [Compound 5d], the half-inhibitory concentration (IC50) at HDAC5, against HDAC9, at HDAC6, on HDAC7 and at HDAC4 was over 40 µM in each case.
On to `O=C(/C=C/c1ccccc1)CCCCc1ccccc1` [Compound 4a], for which the IC50 at HDAC5, on HDAC9, on HDAC6, against HDAC7 and on HDAC4 was over 40 µM each time.
Consider `COc1cc(CCC(=O)CCCCc2ccccc2)ccc1O` [Compound 5i], for which the IC50 against HDAC5, on HDAC9, against HDAC6, against HDAC7 and at HDAC4 was over 40 µM in each case.
With `O=C(/C=C/c1ccc(O)c(F)c1)CCCCc1ccccc1` [Compound 4f], the half-maximal inhibitory concentration (IC50) on HDAC5, at HDAC9, on HDAC6, at HDAC7 and on HDAC4 was over 40 µM in each case.
Turning to `O=C(/C=C/c1ccc(O)c(O)c1)CCc1ccccc1` [Compound 7c], the IC50 against HDAC5 came out at 15.6 ± 0.4 µM; on HDAC9 it was 36.8 ± 0.7 µM; on HDAC6, 34.5 ± 2.2 µM; against HDAC7 it was 13.6 ± 1.1 µM; at HDAC4 it was 38.3 µM.
With `O=C(CCCCc1ccccc1)CCc1ccc(O)cc1` [Compound 5b], the concentration for half-maximal inhibition (IC50) against HDAC5, on HDAC9, against HDAC6, on HDAC7 and at HDAC4 was over 40 µM throughout.
As for `O=C(CCc1ccc(O)c(O)c1)Cc1ccccc1` [Compound 8b], the concentration for half-maximal inhibition (IC50) at HDAC5 is 9 ± 0.2 µM; against HDAC9 it was 37.1 ± 0.9 µM; against HDAC6, over 40 µM; on HDAC7, 13.7 ± 0.7 µM; at HDAC4 it was over 40 µM.
With `O=C(/C=C/c1cccc(O)c1)CCCCc1ccccc1` [Compound 4d], the IC50 against HDAC5, on HDAC9, at HDAC6, against HDAC7 and at HDAC4 was over 40 µM in each case.
In the case of `COc1cc(/C=C/C(=O)CCCCc2ccccc2)ccc1O` [Compound 4k], the half-maximal inhibitory concentration (IC50) on HDAC5, against HDAC9, at HDAC6, on HDAC7 and on HDAC4 was over 40 µM in each case.
On to `O=C(/C=C/c1cccc(O)c1O)CCCCc1ccccc1` [Compound 4e], for which the IC50 at HDAC5 was 14.6 ± 0.2 µM; against HDAC9 it was 18.1 ± 0.4 µM; at HDAC6, 29.4 ± 1.5 µM; at HDAC7, 8.6 ± 1 µM; on HDAC4, 38.8 ± 0.1 µM.
As for `O=C(CCCCc1ccccc1)CCc1ccccc1` [Compound 5a], the half-inhibitory concentration (IC50) at HDAC5, against HDAC9, on HDAC6, on HDAC7 and on HDAC4 was over 40 µM throughout.
On to `O=C(CCc1ccccc1)CCc1ccc(O)c(O)c1` [Compound 8c], for which the IC50 at HDAC5 was 8.2 ± 0.1 µM; at HDAC9, 33.8 ± 3.8 µM; against HDAC6, over 40 µM; at HDAC7, 8.9 ± 0.4 µM; on HDAC4, over 40 µM.
Regarding `O=C(/C=C/c1ccc(O)c(O)c1)CCCc1ccccc1` [Compound 7d], the concentration for half-maximal inhibition (IC50) at HDAC5 was determined as 12.6 ± 2.3 µM; against HDAC9 it was 17.3 ± 0.1 µM; on HDAC6 it was 37.5 ± 1.6 µM; against HDAC7, 9.4 ± 0.2 µM; at HDAC4, 35 ± 2.8 µM.
`O=C(CCCCc1ccccc1)CCc1cccc(O)c1O` [Compound 5e]: the IC50 against HDAC5 was 4.8 ± 0.4 µM; at HDAC9, 9.3 ± 0.8 µM; against HDAC6, over 40 µM; on HDAC7 it was 8.7 ± 0.7 µM; on HDAC4, 35.9 ± 0.1 µM.

These data come from paper PMC6037852, “Design of Diarylheptanoid Derivatives as Dual Inhibitors Against Class IIa Histone Deacetylase and β-amyloid Aggregation” (Frontiers in Pharmacology, 2018).
